Laboratory results: ChEMBL document CHEMBL2016567, “Novel acridinedione derivatives: design, synthesis, SIRT1 enzyme and tumor cell growth inhibition studies” (Bioorg Med Chem Lett, 2012)
Calls of active or inactive are those of the source. The rule behind the calls is not given here.

Legend:
[1] = biological target: T1, NAD-dependent protein deacetylase sirtuin-1 (Homo sapiens, UniProt Q96EB6); assay: Inhibition of human SIRT1 using Fluor-de-Lys as substrate
T1 sequence (Q96EB6 whole entry): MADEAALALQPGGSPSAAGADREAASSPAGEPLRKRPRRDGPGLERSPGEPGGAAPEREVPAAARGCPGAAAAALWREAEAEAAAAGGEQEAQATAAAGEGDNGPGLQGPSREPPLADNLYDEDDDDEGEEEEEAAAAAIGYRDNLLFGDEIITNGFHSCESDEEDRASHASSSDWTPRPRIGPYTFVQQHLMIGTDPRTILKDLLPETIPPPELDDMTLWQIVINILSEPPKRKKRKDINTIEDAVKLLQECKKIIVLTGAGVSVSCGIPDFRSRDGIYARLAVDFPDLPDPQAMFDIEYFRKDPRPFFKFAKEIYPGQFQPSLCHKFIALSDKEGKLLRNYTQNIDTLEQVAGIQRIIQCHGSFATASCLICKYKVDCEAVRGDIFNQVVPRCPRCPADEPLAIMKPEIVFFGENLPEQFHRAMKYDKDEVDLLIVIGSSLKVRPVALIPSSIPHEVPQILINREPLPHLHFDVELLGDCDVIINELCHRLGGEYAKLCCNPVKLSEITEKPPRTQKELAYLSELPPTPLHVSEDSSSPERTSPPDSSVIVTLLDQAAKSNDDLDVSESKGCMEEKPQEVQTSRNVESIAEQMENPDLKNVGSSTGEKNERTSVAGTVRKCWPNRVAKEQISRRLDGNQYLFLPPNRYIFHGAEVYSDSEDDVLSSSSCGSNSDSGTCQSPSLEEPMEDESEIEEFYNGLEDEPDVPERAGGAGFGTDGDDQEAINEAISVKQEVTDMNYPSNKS

HEK293 = assay: Cytotoxicity against human HEK293 cells at 10 uM; type: cell-based; conditions: hek293, 10 µM
[2] = biological target: T2, NAD-dependent protein deacetylase sirtuin-1 (Homo sapiens) (UniProt Q96EB6); assay: Inhibition of human SIRT1 using Fluor-de-Lys as substrate at 50 uM
T2 sequence (whole entry): T1 sequence (Q96EB6 whole entry)

MDA-MB-231 [3] = assay: Growth inhibition of human MDA-MB-231 cells; type: functional, cell-based
K562 = assay: Growth inhibition of human K562 cells; type: functional, cell-based
MDA-MB-231 [4] = assay: Decrease in SIRT1 protein level in human MDA-MB-231 cells after 24 hrs by Western blot analysis; type: functional, cell-based
[5] = biological target: T2, NAD-dependent protein deacetylase sirtuin-1 (Homo sapiens); assay: Inhibition of SIRT1 in human MDA-MB-231 cells assessed as increase in p53 acetylation at lysine 382 residue after 24 hrs by Western blot analysis; type: cell-based

IC50 [1]	inhibition [2]	IC50 (MDA-MB-231 [3])	IC50 (K562)	inhibition [5]	Compound	Activity (HEK293)	Activity (MDA-MB-231 [4])
43.1 µM	55.2%	1.38 µM	–	–	CC1(C)CC(=O)C2=C(C1)N(Nc1ccccc1)C1=C(C(=O)CC(C)(C)C1)C2c1ccc(OCc2ccccc2)cc1	Non-toxic	–
43.3 µM	54.8%	6.63 µM	–	–	CC1(C)CC(=O)C2=C(C1)N(Nc1ccc([N+](=O)[O-])cc1[N+](=O)[O-])C1=C(C(=O)CC(C)(C)C1)C2c1ccc(OCc2ccccc2)cc1	Non-toxic	–
–	35.6%	–	–	–	COc1ccc(C(=O)NN2C3=C(C(=O)CC(C)(C)C3)C(c3cccc(OCc4ccccc4)c3)C3=C2CC(C)(C)CC3=O)c(OC)n1	–	–
–	35.6%	–	–	–	CC1(C)CC(=O)C2=C(C1)N(NC(=O)c1ccc([N+](=O)[O-])cc1)C1=C(C(=O)CC(C)(C)C1)C2c1ccc(OCc2ccccc2)cc1	–	–
–	39%	–	–	–	CC1(C)CC(=O)C2=C(C1)N(NC(=O)c1ccc([N+](=O)[O-])cc1)C1=C(C(=O)CC(C)(C)C1)C2c1ccccc1OCc1ccccc1	–	–
–	33.2%	–	–	–	CC1(C)CC(=O)C2=C(C1)N(Nc1ccc([N+](=O)[O-])cc1[N+](=O)[O-])C1=C(C(=O)CC(C)(C)C1)C2c1cccc(OCc2ccccc2)c1	–	–
–	35.2%	–	–	–	COc1ccc(C(=O)NN2C3=C(C(=O)CC(C)(C)C3)C(c3ccccc3OCc3ccccc3)C3=C2CC(C)(C)CC3=O)c(OC)n1	–	–
–	72.6%	5 µM	10 µM	–	CC1(C)CC(=O)C2=C(C1)N(NC(=O)c1ccncc1)C1=C(C(=O)CC(C)(C)C1)C2c1ccccc1OCc1ccccc1	Non-toxic	–
11.1 µM	82.1%	50 µM	–	–	CC1(C)CC(=O)C2=C(C1)N(Nc1ccccc1)C1=C(C(=O)CC(C)(C)C1)C2c1ccccc1OCc1ccccc1	Non-toxic	–
10.1 µM	83.2%	0.25 µM	–	Dose-dependent effect	CC1(C)CC(=O)C2=C(C1)N(Nc1ccc([N+](=O)[O-])cc1[N+](=O)[O-])C1=C(C(=O)CC(C)(C)C1)C2c1ccccc1OCc1ccccc1	Non-toxic	Dose-dependent effect
–	21.5%	–	–	–	CC1(C)CC(=O)C2=C(C1)N(NC(=O)c1ccccc1)C1=C(C(=O)CC(C)(C)C1)C2c1cccc(OCc2ccccc2)c1	–	–
–	53.7%	> 50 µM	10 µM	–	CC1(C)CC(=O)C2=C(C1)N(NC(=O)c1ccncc1)C1=C(C(=O)CC(C)(C)C1)C2c1cccc(OCc2ccccc2)c1	Non-toxic	–
–	–	10 µM	–	–	COc1cccc2c1C(=O)c1c(O)c3c(c(O)c1C2=O)C[C@@](O)(C(=O)CO)C[C@@H]3O[C@H]1C[C@H](N)[C@H](O)[C@H](C)O1 [DOXORUBICIN]	Non-toxic	–
–	53.9%	31.2 µM	18.5 µM	–	Cc1ccc(C(=O)Nc2ccc(S(=O)(=O)O)c3cc(S(=O)(=O)O)cc(S(=O)(=O)O)c23)cc1NC(=O)c1cccc(NC(=O)Nc2cccc(C(=O)Nc3cc(C(=O)Nc4ccc(S(=O)(=O)O)c5cc(S(=O)(=O)O)cc(S(=O)(=O)O)c45)ccc3C)c2)c1 [SURAMIN]	Non-toxic	–
–	4.7%	–	–	–	CC1(C)CC(=O)C2=C(C1)N(NC(=O)c1ccc(Cl)cc1Cl)C1=C(C(=O)CC(C)(C)C1)C2c1cccc(OCc2ccccc2)c1	–	–
–	39.7%	–	–	–	CC1(C)CC(=O)C2=C(C1)N(NC(=O)c1ccccc1)C1=C(C(=O)CC(C)(C)C1)C2c1ccccc1OCc1ccccc1	–	–
46 µM	52%	3.16 µM	–	–	CC1(C)CC(=O)C2=C(C1)N(NC(=O)c1ccccc1)C1=C(C(=O)CC(C)(C)C1)C2c1ccc(OCc2ccccc2)cc1	Non-toxic	–
40.1 µM	51.4%	0.99 µM	–	–	CC1(C)CC(=O)C2=C(C1)N(Nc1ccccc1)C1=C(C(=O)CC(C)(C)C1)C2c1cccc(OCc2ccccc2)c1	Non-toxic	–
25 µM	55.1%	0.31 µM	–	–	COc1ccc(C(=O)NN2C3=C(C(=O)CC(C)(C)C3)C(c3ccc(OCc4ccccc4)cc3)C3=C2CC(C)(C)CC3=O)c(OC)n1	Non-toxic	–
–	3.6%	–	–	–	CC1(C)CC(=O)C2=C(C1)N(NC(=O)c1ccc(Cl)cc1Cl)C1=C(C(=O)CC(C)(C)C1)C2c1ccc(OCc2ccccc2)cc1	–	–
–	33.6%	–	–	–	CC1(C)CC(=O)C2=C(C1)N(NC(=O)c1ccc([N+](=O)[O-])cc1)C1=C(C(=O)CC(C)(C)C1)C2c1cccc(OCc2ccccc2)c1	–	–
–	inactive	> 50 µM	> 50 µM	–	CC1(C)CC(=O)C2=C(C1)N(NC(=O)c1ccncc1)C1=C(C(=O)CC(C)(C)C1)C2c1ccc(OCc2ccccc2)cc1	Non-toxic	–
